Laboratory results reported in ChEMBL document CHEMBL1156230, “Identification of phenylsulfone-substituted quinoxaline (WYE-672) as a tissue selective liver X-receptor (LXR) agonist” (J Med Chem, 2010).
pEC50, pIC50: −log10 of the molar value.

Tests used:
[1] = target: T1, Oxysterols receptor LXR-alpha (Homo sapiens, UniProt Q13133); assay: Displacement of [3H]T0901317 from human LXRalpha ligand binding domain
T1 sequence (Q13133 whole entry): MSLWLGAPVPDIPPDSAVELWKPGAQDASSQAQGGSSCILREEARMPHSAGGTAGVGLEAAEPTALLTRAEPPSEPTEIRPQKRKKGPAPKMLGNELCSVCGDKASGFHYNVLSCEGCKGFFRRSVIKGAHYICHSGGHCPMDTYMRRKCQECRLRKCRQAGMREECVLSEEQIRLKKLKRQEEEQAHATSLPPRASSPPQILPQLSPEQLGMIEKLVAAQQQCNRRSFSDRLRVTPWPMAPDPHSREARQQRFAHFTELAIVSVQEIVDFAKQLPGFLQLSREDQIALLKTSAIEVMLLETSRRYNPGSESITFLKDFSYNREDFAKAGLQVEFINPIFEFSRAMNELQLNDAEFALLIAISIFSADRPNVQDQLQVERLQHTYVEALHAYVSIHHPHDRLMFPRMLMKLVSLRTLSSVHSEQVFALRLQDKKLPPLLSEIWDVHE

HepG2 [2] = assay: Agonist activity at LXR in human HepG2 cells assessed as lipid accumulation relative to T0901317
THP-1 = assay: cells; details: Homo sapiens
HepG2 [3] = assay: cells; details: Homo sapiens, HepG2, 3 h
[4] = target: T2, Oxysterols receptor LXR-alpha (Homo sapiens, UniProt Q13133)
[5] = target: T3, Oxysterols receptor LXR-beta (Homo sapiens, UniProt P55055); assay: Displacement of [3H]T0901317 from human LXRbeta ligand binding domain
[6] = target: T3, Oxysterols receptor LXR-beta
[7] = target: T3, Oxysterols receptor LXR-beta; remark: listed apart in the source
[8] = target: T2, Oxysterols receptor LXR-alpha; remark: listed apart in the source

T3 sequence (P55055 whole entry, the tested form may be a part): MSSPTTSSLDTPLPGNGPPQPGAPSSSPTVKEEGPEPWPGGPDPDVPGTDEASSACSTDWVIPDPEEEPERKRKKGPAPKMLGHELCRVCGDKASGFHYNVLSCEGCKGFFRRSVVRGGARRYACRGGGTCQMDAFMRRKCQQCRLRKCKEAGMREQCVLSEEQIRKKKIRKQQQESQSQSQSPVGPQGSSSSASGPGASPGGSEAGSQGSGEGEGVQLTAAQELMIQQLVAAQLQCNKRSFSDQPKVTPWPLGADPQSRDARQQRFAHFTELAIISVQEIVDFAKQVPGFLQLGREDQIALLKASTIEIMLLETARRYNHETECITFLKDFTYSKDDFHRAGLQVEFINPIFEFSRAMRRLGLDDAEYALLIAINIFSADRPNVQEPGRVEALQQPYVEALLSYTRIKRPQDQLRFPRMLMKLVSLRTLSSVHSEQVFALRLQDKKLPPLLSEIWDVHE

Structure (SMILES): Cc1nc2c(C(F)(F)F)cccc2nc1-c1cccc(-c2cccc(S(C)(=O)=O)c2)c1
- pIC50 [1]: < 6.00

Structure (SMILES): CNS(=O)(=O)c1cccc(-c2ccc(-c3nc4cccc(C(F)(F)F)c4nc3C)cc2)c1
- Efficacy (HepG2 [2]): 6%
- pEC50 (THP-1): 5.83

Structure (SMILES): CCc1nc2c(C(F)(F)F)cccc2nc1-c1ccc(-c2cccc(S(C)(=O)=O)c2)cc1
- Efficacy (HepG2 [2]): 32%
- pEC50 (HepG2 [3]): 6.46
- pEC50 (THP-1): 6.05

Structure (SMILES): Cc1nc2c(C(F)(F)F)cccc2nc1-c1cccc(-c2ccc(S(C)(=O)=O)cc2)c1
- pIC50 [1]: < 6.00

Structure (SMILES): Cc1nc2c(Cl)cccc2nc1-c1ccc(-c2cccc(S(C)(=O)=O)c2)cc1
- Efficacy (HepG2 [2]): 18%
- pEC50 (HepG2 [3]): 6.42
- pEC50 (THP-1): 6.54

Structure (SMILES): Cc1nc2c(C(F)(F)F)cccc2nc1-c1ccc(-c2ccc(S(C)(=O)=O)cc2)cc1
- pIC50 [1]: < 6.00

Structure (SMILES): CS(=O)(=O)c1cc(Cl)cc(Oc2cccc(-c3c(C(N)=O)cnc4c(C(F)(F)F)cccc34)c2)c1
- pEC50 [4]: 4.96
- Efficacy (HepG2 [2]): 74%
- pIC50 [5]: 7.21
- pEC50 [6]: 5.77
- pEC50 (HepG2 [3]): 5.50
- pEC50 [7]: 6.34
- pEC50 (THP-1): 5.72
- pEC50 [8]: 5.29

Structure (SMILES): Cc1nc2c(C(F)(F)F)cccc2nc1-c1ccc(-c2ccccc2S(C)(=O)=O)cc1
- pIC50 [1]: < 6.00

Structure (SMILES): CNC(=O)c1cccc(-c2ccc(-c3nc4cccc(C(F)(F)F)c4nc3C)cc2)c1
- pIC50 [1]: < 6.00

Structure (SMILES): CS(=O)(=O)c1cccc(-c2ccc(-c3cnc4c(C(F)(F)F)cccc4n3)cc2)c1
- pIC50 [1]: < 6.00

Structure (SMILES): CCS(=O)(=O)c1cccc(-c2ccc(-c3nc4cccc(C(F)(F)F)c4nc3C)cc2)c1
- pIC50 [1]: < 6.00
